Data on 20 molecules can be found in ChEMBL document CHEMBL5291721, “A preclinical secondary pharmacology resource illuminates target-adverse drug reaction associations of marketed drugs” (Nat Commun, 2023).

The target of assay [1] is T1, Alpha-1A adrenergic receptor (Homo sapiens, UniProt P35348).
T1 sequence (P35348 whole entry): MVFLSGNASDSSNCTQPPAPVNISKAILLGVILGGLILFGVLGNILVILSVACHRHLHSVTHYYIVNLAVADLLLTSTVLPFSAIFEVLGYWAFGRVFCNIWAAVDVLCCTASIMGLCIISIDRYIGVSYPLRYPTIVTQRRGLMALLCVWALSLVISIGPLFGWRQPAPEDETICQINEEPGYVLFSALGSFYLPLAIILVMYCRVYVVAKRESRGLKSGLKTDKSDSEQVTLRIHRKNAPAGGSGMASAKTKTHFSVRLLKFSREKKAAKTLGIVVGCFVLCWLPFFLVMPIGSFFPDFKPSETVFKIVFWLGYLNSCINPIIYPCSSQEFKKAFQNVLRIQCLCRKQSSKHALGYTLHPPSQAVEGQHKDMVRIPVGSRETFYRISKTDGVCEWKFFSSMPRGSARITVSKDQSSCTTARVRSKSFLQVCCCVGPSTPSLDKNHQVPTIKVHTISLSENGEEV
The assay is classed as functional, cell-based.

For assay [2], the target named is Muscarinic acetylcholine receptor M3 (Homo sapiens, UniProt P20309).
Assay [3] has as its target T2, Cannabinoid receptor 1 (Homo sapiens, UniProt P21554). The assay is classed as functional, cell-based.
Assay [4] concerns the target T2, Cannabinoid receptor 1. The assay is classed as functional, cell-based. The source holds these as a separate data set.
For assay [5], the target named is Histamine H1 receptor (Homo sapiens, UniProt P35367).
The target of assay [6] is Melanocortin receptor 4 (Homo sapiens, UniProt P32245).
Assay [7] concerns the target Acetylcholinesterase (Homo sapiens, UniProt P22303). The assay is classed as functional.
The target in assay [8] is T3, Amine oxidase [flavin-containing] A (Homo sapiens, UniProt P21397).
T3 sequence (P21397 whole entry): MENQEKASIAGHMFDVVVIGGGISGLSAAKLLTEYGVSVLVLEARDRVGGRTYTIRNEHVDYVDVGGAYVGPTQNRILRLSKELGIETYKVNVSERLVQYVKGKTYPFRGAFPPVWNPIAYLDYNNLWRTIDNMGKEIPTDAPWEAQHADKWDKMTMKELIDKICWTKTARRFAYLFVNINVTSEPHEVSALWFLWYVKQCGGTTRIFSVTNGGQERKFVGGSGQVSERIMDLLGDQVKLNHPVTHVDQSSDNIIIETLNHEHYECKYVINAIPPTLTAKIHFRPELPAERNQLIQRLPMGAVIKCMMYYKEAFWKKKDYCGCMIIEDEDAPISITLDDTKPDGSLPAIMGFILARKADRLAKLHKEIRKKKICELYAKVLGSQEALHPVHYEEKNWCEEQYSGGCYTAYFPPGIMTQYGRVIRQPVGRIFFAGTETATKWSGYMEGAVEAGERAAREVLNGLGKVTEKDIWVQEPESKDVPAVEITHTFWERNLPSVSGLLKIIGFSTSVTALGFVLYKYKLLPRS
Type of assay: functional.

Assay [9] addresses T4, Glucocorticoid receptor (Homo sapiens, UniProt P04150).
T4 sequence (P04150 whole entry): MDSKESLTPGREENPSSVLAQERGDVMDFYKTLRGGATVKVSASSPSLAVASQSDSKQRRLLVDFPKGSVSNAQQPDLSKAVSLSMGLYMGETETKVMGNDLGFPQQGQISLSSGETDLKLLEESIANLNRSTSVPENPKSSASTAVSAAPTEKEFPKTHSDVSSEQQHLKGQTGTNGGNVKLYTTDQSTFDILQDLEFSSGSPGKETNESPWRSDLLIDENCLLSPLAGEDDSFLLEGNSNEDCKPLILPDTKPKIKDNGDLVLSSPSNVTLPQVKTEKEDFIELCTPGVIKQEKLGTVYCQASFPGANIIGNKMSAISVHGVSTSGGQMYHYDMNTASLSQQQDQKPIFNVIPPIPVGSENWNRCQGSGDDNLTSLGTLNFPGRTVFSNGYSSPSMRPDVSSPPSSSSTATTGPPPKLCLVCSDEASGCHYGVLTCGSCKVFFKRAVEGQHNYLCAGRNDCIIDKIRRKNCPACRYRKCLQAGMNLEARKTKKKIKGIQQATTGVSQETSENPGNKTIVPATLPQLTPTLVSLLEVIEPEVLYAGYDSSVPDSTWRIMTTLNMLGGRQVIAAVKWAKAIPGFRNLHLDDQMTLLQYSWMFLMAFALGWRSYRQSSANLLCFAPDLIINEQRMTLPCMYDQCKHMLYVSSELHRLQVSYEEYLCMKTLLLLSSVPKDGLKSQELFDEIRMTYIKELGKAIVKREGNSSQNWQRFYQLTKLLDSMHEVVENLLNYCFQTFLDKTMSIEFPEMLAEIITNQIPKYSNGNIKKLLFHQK

Assay [10] has as its target Sodium-dependent dopamine transporter (Homo sapiens, UniProt Q01959).
Assay [11] deals with T1, Alpha-1A adrenergic receptor. Type of assay: functional, cell-based. This is another data set of the same source.
Assay [12] concerns the target Histamine H2 receptor (Homo sapiens, UniProt P25021). Type of assay: functional, cell-based.
In assay [13] the target is T1, Alpha-1A adrenergic receptor. The assay is classed as functional, cell-based. This is another data set of the same source.
Assay [14] deals with T5, 5-hydroxytryptamine receptor 2A (Homo sapiens, UniProt P28223). The assay is classed as functional, cell-based.
Assay [15] concerns the target T5, 5-hydroxytryptamine receptor 2A. Type of assay: functional, cell-based. The source holds these as a separate data set.
Further: assay procedure not described here.

Chain of Muscarinic acetylcholine receptor M3 (P20309 whole entry): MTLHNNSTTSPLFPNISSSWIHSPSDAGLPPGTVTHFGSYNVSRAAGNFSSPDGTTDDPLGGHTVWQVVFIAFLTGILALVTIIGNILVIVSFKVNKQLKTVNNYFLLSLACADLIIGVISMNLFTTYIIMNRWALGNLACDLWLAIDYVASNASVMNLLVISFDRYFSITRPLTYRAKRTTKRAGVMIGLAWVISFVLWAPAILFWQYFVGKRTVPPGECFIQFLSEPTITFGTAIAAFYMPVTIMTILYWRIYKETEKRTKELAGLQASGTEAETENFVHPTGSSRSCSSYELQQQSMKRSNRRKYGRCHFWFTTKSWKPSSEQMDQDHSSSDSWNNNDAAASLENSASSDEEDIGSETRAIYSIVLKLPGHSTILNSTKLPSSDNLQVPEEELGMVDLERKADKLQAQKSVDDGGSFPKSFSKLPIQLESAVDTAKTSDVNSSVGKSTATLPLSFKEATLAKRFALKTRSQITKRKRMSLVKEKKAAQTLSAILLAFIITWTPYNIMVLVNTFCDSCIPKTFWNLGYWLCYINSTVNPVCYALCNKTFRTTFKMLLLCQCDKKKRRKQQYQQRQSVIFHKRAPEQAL
Chain of Melanocortin receptor 4 (P32245 whole entry): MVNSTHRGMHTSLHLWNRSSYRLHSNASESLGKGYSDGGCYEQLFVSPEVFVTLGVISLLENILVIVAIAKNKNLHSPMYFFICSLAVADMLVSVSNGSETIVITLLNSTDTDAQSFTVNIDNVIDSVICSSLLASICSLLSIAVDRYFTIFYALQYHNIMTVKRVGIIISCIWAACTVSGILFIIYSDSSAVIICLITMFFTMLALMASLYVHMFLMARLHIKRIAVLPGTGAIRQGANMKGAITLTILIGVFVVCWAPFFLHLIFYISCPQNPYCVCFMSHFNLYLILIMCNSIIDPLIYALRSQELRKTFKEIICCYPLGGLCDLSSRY
Chain of Acetylcholinesterase (P22303 whole entry): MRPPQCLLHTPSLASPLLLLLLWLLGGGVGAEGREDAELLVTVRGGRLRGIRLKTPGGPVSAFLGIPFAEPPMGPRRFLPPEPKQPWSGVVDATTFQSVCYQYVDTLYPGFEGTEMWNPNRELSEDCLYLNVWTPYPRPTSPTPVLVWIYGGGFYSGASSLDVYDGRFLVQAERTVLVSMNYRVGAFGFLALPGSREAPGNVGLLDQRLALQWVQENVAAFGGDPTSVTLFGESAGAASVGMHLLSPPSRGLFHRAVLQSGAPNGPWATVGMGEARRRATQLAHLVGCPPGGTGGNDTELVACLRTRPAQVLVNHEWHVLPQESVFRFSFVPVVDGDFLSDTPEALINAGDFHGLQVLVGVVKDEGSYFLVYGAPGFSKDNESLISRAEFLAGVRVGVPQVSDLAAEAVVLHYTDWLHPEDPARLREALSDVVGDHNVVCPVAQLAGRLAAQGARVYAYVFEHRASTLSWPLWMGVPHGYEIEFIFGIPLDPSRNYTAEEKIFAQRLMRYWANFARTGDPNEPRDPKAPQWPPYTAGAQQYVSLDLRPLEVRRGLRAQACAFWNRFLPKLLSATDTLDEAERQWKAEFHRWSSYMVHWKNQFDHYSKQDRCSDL
T5 sequence (P28223 whole entry): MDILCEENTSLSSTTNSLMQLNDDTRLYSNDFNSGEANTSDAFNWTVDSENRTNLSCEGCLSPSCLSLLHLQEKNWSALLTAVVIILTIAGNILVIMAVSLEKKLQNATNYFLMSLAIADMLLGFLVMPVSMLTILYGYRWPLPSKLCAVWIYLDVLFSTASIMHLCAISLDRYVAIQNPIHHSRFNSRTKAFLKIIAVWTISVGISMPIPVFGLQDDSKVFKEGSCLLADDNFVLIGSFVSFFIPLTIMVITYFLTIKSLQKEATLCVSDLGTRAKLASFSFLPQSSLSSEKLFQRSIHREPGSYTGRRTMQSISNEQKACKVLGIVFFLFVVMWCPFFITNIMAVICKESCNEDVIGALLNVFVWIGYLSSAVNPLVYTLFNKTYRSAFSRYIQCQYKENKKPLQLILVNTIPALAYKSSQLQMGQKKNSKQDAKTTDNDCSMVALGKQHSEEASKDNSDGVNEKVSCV
T2 sequence (P21554 whole entry): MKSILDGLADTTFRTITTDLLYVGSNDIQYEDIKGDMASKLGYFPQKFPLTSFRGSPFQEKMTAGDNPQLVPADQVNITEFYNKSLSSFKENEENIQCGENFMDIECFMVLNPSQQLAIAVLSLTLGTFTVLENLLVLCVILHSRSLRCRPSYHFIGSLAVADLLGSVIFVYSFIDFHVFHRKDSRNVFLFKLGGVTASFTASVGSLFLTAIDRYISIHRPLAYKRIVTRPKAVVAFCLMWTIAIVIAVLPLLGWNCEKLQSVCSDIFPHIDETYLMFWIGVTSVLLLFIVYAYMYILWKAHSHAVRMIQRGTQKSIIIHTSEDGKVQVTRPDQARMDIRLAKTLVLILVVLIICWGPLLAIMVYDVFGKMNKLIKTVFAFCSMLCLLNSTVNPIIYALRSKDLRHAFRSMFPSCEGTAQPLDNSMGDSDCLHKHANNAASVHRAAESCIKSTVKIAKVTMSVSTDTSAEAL
Chain of Histamine H1 receptor (P35367 whole entry): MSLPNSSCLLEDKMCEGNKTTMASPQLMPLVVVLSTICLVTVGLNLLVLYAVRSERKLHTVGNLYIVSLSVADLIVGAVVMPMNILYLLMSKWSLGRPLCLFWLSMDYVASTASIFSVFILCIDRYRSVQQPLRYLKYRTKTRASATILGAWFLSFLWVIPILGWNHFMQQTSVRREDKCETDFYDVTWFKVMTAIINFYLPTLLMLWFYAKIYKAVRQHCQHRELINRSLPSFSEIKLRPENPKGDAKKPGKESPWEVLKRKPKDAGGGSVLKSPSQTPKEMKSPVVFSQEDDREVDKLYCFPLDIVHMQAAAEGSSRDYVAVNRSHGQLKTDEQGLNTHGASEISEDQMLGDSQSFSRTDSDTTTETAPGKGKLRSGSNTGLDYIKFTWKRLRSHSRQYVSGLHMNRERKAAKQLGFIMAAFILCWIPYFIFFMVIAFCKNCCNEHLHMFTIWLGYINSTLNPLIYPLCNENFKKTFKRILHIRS
Chain of Sodium-dependent dopamine transporter (Q01959 whole entry): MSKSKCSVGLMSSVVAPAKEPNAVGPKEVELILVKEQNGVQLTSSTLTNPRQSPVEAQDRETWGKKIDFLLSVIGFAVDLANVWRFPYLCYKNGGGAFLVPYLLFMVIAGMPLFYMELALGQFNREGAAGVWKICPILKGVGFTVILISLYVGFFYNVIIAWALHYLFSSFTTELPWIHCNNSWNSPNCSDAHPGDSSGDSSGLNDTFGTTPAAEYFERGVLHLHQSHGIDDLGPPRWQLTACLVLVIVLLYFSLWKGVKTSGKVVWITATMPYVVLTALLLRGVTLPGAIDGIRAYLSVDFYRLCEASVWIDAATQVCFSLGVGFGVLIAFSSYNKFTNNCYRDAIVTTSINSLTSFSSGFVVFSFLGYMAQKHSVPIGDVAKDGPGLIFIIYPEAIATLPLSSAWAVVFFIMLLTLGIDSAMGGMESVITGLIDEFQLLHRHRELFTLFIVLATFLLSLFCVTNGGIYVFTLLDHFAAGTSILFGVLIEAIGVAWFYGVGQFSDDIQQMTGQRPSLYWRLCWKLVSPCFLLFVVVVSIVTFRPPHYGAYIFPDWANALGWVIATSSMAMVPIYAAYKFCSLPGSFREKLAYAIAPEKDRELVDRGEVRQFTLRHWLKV
Chain of Histamine H2 receptor (P25021 whole entry): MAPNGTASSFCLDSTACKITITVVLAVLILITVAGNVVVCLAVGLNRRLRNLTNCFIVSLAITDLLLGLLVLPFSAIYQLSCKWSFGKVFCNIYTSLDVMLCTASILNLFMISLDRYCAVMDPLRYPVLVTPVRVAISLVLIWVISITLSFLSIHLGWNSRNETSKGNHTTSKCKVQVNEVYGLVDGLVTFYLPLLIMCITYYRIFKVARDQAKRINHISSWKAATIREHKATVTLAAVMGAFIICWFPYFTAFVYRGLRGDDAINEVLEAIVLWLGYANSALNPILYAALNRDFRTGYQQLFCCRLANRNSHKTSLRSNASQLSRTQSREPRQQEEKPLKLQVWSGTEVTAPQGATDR

As for `CCc1nn(CCCN2CCN(c3cccc(Cl)c3)CC2)c(=O)n1CCOc1ccccc1` [NEFAZODONE], the half-maximal activity concentration (AC50) in assay [1] was 2.2 µM; in [2], greater than 10 µM; in assay [3], greater than 30 µM; in [4], greater than 30 µM; in [5] it was 0.41 µM; in [6], greater than 30 µM.

In the case of `COc1cc(Nc2c(C#N)cnc3cc(OCCCN4CCN(C)CC4)c(OC)cc23)c(Cl)cc1Cl` [BOSUTINIB], the concentration at half-maximal activity (AC50) in assay [7] was 15.6 µM; in assay [5], greater than 10 µM; in [8], greater than 30 µM; in assay [6], 17.7 µM; in [9] it was greater than 30 µM; in assay [10], 7.55 µM.

For the molecule `CCc1ccc(CCOc2ccc(CC3SC(=O)NC3=O)cc2)nc1` (stereo not given) [PIOGLITAZONE], the AC50 was greater than 30 µM in [7]; greater than 30 µM in assay [11]; greater than 10 µM in [12]; greater than 30 µM in [8]; greater than 30 µM in assay [6]; greater than 30 µM in assay [9]. In assay [10], this molecule had a concentration at half-maximal activity (AC50) greater than 30 µM.

As to `CN(C)CCCN1c2ccccc2CCc2ccc(Cl)cc21` [CLOMIPRAMINE], the half-maximal activity concentration (AC50) is greater than 30 µM in assay [7]; greater than 30 µM in assay [1]; greater than 30 µM in [11]; greater than 30 µM in assay [12]; greater than 30 µM in assay [8]; 4.82 µM in assay [10]. In assay [13], this molecule showed an AC50 of 1.4 µM.

Take `CC(C)C(=O)Nc1ccc([N+](=O)[O-])c(C(F)(F)F)c1` [FLUTAMIDE]: the concentration at half-maximal activity (AC50) in assay [7], in [1], in assay [11], in assay [12], in assay [8] and in [6] was greater than 30 µM each time. Besides, the AC50 in [10] and in [13] was greater than 30 µM each time.

On to `CN(CCOc1ccc(NS(C)(=O)=O)cc1)CCc1ccc(NS(C)(=O)=O)cc1` [DOFETILIDE], for which the AC50 was 13.6 µM in assay [7]; greater than 30 µM in assay [1]; greater than 30 µM in [11]; greater than 10 µM in [2]; greater than 30 µM in assay [3]; greater than 30 µM in assay [4]. Besides, the AC50 is greater than 10 µM in assay [5]; greater than 30 µM in assay [12]; greater than 30 µM in [14]; greater than 30 µM in assay [15]; greater than 30 µM in assay [8]; greater than 30 µM in assay [6]. Moreover, the concentration at half-maximal activity (AC50) in assay [9], in assay [10] and in assay [13] was greater than 30 µM throughout.

Take `CC(C(=O)O)c1ccc(C(=O)c2cccs2)cc1` (stereo not given) [SUPROFEN]: the half-maximal activity concentration (AC50) in assay [2] was greater than 30 µM; in assay [5], greater than 10 µM; in assay [12] it was greater than 10 µM; in assay [14], greater than 10 µM; in [15], greater than 10 µM; in [6], greater than 10 µM. This molecule also showed an AC50 in assay [9] greater than 10 µM.

Take `NS(=O)(=O)c1cc2c(cc1Cl)NCNS2(=O)=O` [HYDROCHLOROTHIAZIDE]: the AC50 is greater than 10 µM in assay [12], greater than 30 µM in assay [6] and greater than 30 µM in assay [9].

On to `NC(=O)c1cnccn1` [PYRAZINAMIDE], for which the AC50 in [7], in assay [1], in assay [11], in assay [3], in assay [4] and in assay [12] was greater than 30 µM in each case. Further, the AC50 in assay [8] is greater than 30 µM; in [6], 10.2 µM; in assay [9], greater than 30 µM; in assay [10], greater than 30 µM; in assay [13], 28 µM.

Turning to `NC1=NC(=O)C(c2ccccc2)O1` (stereo not given) [PEMOLINE], the AC50 is greater than 10 µM in [12], greater than 30 µM in [6] and greater than 30 µM in assay [9].

`COC(=O)N[C@H](C(=O)N[C@@H](Cc1ccccc1)[C@@H](O)CN(Cc1ccc(-c2ccccn2)cc1)NC(=O)[C@@H](NC(=O)OC)C(C)(C)C)C(C)(C)C` [ATAZANAVIR]: the AC50 in assay [2] was greater than 30 µM; in assay [5], greater than 10 µM; in [12] it was greater than 10 µM; in assay [14], greater than 10 µM; in assay [15], greater than 10 µM; in assay [6], greater than 30 µM. The same molecule yielded a concentration at half-maximal activity (AC50) in assay [9] greater than 30 µM.

As for `CN1C(=O)CC(C)(c2ccccc2)C1=O` (stereo not given) [METHSUXIMIDE], the AC50 is greater than 30 µM in assay [2]; greater than 10 µM in assay [5]; greater than 30 µM in assay [12]; greater than 10 µM in [14]; greater than 10 µM in assay [15]; greater than 10 µM in assay [6]. Also, the half-maximal activity concentration (AC50) in [9] was greater than 10 µM.

Turning to `Cc1ccc(C(=O)c2cc(O)c(O)c([N+](=O)[O-])c2)cc1` [TOLCAPONE], the AC50 in assay [2] is greater than 30 µM; in assay [5], greater than 10 µM; in assay [12], greater than 10 µM; in [14], greater than 10 µM; in assay [15], greater than 10 µM; in assay [6] it was greater than 10 µM. For the same molecule, the AC50 in assay [9] is greater than 30 µM.

As to `C[C@@H]1O[C@@H]1P(=O)(O)O` [FOSFOMYCIN], the AC50 was greater than 30 µM in assay [2]; greater than 10 µM in [5]; greater than 10 µM in [12]; greater than 10 µM in [14]; greater than 10 µM in assay [15]; greater than 10 µM in assay [6]. For the same molecule, the AC50 in assay [9] was greater than 30 µM.

On to `NC[C@H]1CC[C@H](C(=O)O)CC1` [TRANEXAMIC ACID], for which the concentration at half-maximal activity (AC50) in [12] is greater than 30 µM; in assay [6] it was greater than 10 µM.

As to `C[C@H]1C[C@@H]2[C@H]([C@@H](O)C[C@@]3(C)[C@H]2CC[C@]3(O)C(=O)CO)[C@@]2(C)C=CC(=O)C=C12` [METHYLPREDNISOLONE], the AC50 in [12] is greater than 30 µM; in [6], greater than 10 µM.

For the molecule `O=C(O)c1cc(-c2ccc(F)cc2F)ccc1O` [DIFLUNISAL], the half-maximal activity concentration (AC50) in assay [12] is greater than 30 µM; in assay [6] it was greater than 10 µM; in [9] it was greater than 10 µM.

For the molecule `CC(C)(C(=O)c1cccnc1)c1cccnc1` [METYRAPONE], the AC50 in [12], in assay [6] and in assay [9] was greater than 10 µM in each case.

Consider `C[N+]1(C)[C@@H]2C[C@@H](OC(=O)[C@H](CO)c3ccccc3)C[C@H]1[C@@H]1O[C@@H]12` [METHSCOPOLAMINE], for which the AC50 in assay [7], in assay [11], in assay [8] and in assay [10] was greater than 30 µM each time.

For `NC[C@H]1O[C@H](O[C@H]2[C@H](O)[C@@H](O[C@H]3O[C@H](CO)[C@@H](O)[C@H](N)[C@H]3O)[C@H](N)C[C@@H]2N)[C@H](O)[C@@H](O)[C@@H]1O` [KANAMYCIN], the AC50 in [1] was greater than 30 µM; in assay [12], greater than 30 µM; in [6], greater than 10 µM; in assay [9] it was greater than 10 µM; in assay [13] it was greater than 30 µM.
